For orientation: IC50 means the concentration that gives 50% inhibition. Low values mean greater potency in that assay, high ones weaker potency in that assay. In general, MIC refers to the lowest concentration that inhibits growth of the organism. Lower therefore signals inhibition by little substance.

≈ marks a conversion by molar mass, not a printed value.

The target in the first experiment is T1, 3-oxoacyl-[acyl-carrier-protein] synthase 2 (Mycobacterium tuberculosis, UniProt P9WQD7).
T1 sequence (P9WQD7 whole entry): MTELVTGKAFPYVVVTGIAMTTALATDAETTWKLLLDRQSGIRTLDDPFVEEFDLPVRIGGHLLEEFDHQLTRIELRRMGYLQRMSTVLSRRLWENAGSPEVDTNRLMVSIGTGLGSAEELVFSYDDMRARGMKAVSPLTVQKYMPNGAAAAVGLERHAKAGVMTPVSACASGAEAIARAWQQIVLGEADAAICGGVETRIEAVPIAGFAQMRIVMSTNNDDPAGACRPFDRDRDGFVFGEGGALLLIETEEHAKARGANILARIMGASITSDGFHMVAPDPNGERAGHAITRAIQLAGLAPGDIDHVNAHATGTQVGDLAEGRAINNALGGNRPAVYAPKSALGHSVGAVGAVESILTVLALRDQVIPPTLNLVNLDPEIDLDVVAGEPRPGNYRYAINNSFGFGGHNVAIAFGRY
Briefly: Inhibitory activity against KasB from Mycobacterium tuberculosis H37Rv.
With `CC1=C(O)C(C)(Cc2ccc(C(C)(C)C)cc2)SC1=O` (stereo not given), the IC50 is > 1000 µM.
On to `CC1=C(O)C(C)(Cc2ccc([N+](=O)[O-])cc2)SC1=O` (stereo not given), for which the half-maximal inhibitory concentration (IC50) is > 1000 µM.
Still for that read-out and setting: to `COc1ccccc1CC1(C)SC(O)=C(C)C1=O` (stereo not given) belongs > 1000 µM; to `CC1=C(O)C(C)(Cc2c(C)cc(C)cc2C)SC1=O` (stereo not given), > 1000 µM; to `CC1=C(O)C(C)(Cc2cccc(Cl)c2)SC1=O` (stereo not given), > 1000 µM.
On the same count and under the same terms, to `COc1cccc(CC2(C)SC(O)=C(C)C2=O)c1` (stereo not given) belongs > 1000 µM.
Turning to `CCCCCC(C)C1(C)SC(O)=C(C)C1=O` (stereo not given), the 50% inhibitory concentration (IC50) is > 1000 µM.
Regarding `CC1=C(O)C(C)(Cc2ccc(Cl)cc2)SC1=O` (stereo not given), the half-inhibitory concentration (IC50) was > 1000 µM.
As for `CC1=C(O)C(C)(Cc2ccccc2C)SC1=O` (stereo not given), the IC50 is > 1000 µM.
On the same count and under the same terms, to `CC1=C(O)C(C)(Cc2ccc(C)cc2)SC1=O` (stereo not given) belongs > 1000 µM.

For the next experiment, the target named is T2, 3-oxoacyl-[acyl-carrier-protein] synthase 1 (Escherichia coli K-12, UniProt P0A953).
T2 sequence (P0A953 whole entry): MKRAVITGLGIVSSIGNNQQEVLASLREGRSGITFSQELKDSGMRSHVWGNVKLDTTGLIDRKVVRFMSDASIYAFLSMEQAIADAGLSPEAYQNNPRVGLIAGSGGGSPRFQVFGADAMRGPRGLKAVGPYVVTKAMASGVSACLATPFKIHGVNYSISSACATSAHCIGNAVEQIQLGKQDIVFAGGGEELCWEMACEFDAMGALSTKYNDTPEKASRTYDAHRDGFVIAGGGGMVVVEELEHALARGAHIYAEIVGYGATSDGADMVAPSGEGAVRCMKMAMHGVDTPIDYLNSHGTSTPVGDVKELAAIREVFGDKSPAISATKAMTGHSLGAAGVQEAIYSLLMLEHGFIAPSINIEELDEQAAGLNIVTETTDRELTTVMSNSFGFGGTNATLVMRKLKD
Briefly: Inhibitory activity against FabB from Escherichia coli ANSI.
`CC1=C(O)C(C)(Cc2ccc(C(C)(C)C)cc2)SC1=O` (stereo not given): the 50% inhibitory concentration (IC50) was > 1000 µM.
Regarding `CC1=C(O)C(C)(Cc2ccc([N+](=O)[O-])cc2)SC1=O` (stereo not given), the half-maximal inhibitory concentration (IC50) is > 1000 µM.
Regarding `COc1ccccc1CC1(C)SC(O)=C(C)C1=O` (stereo not given), the half-maximal inhibitory concentration (IC50) is > 1000 µM.
`CC1=C(O)C(C)(Cc2c(C)cc(C)cc2C)SC1=O` (stereo not given): the IC50 was > 1000 µM.
As to `CC1=C(O)C(C)(Cc2cccc(Cl)c2)SC1=O` (stereo not given), the IC50 was > 1000 µM.
`COc1cccc(CC2(C)SC(O)=C(C)C2=O)c1` (stereo not given): the IC50 is > 1000 µM.
On to `CCCCCC(C)C1(C)SC(O)=C(C)C1=O` (stereo not given), for which the half-inhibitory concentration (IC50) is > 1000 µM.
Still for that read-out and setting: to `CC1=C(O)C(C)(Cc2ccc(Cl)cc2)SC1=O` (stereo not given) belongs > 1000 µM; to `CC1=C(O)C(C)(Cc2ccccc2C)SC1=O` (stereo not given), > 1000 µM.
Still for that read-out and setting: the result for `CC1=C(O)C(C)(Cc2ccc(C)cc2)SC1=O` (stereo not given) reads > 1000 µM.

The next experiment relates to Mycobacterium tuberculosis. Description: Inhibitory activity against Mycobacterium tuberculosis H37Rv. Format: functional.
As for `CC1=C(O)C(C)(Cc2ccc(C(C)(C)C)cc2)SC1=O` (stereo not given), inhibition of growth (MIC) required 1000 µM (≈ 290 µg/mL).
Regarding `CC1=C(O)C(C)(Cc2ccc([N+](=O)[O-])cc2)SC1=O` (stereo not given), the MIC is > 1000 µM.
Turning to `COc1ccccc1CC1(C)SC(O)=C(C)C1=O` (stereo not given), the MIC is > 1000 µM.
In turn, `CC1=C(O)C(C)(Cc2c(C)cc(C)cc2C)SC1=O` (stereo not given) yielded an MIC of 1000 µM (≈ 276 µg/mL).
Same read-out and setting: to `CC1=C(O)C(C)(Cc2cccc(Cl)c2)SC1=O` (stereo not given) belongs 1000 µM (≈ 269 µg/mL); to `COc1cccc(CC2(C)SC(O)=C(C)C2=O)c1` (stereo not given), > 1000 µM.
Same read-out and setting: to `CCCCCC(C)C1(C)SC(O)=C(C)C1=O` (stereo not given) belongs 1000 µM (≈ 242 µg/mL); to `CC1=C(O)C(C)(Cc2ccc(Cl)cc2)SC1=O` (stereo not given), 1000 µM (≈ 269 µg/mL).
As to `CC1=C(O)C(C)(Cc2ccccc2C)SC1=O` (stereo not given), the MIC is 1000 µM (≈ 248 µg/mL).
Turning to `CC1=C(O)C(C)(Cc2ccc(C)cc2)SC1=O` (stereo not given), the MIC is > 1000 µM.

The test system of the next experiment is Escherichia coli. Briefly: Inhibitory activity against Escherichia coli ANSI. Format: functional.
As to `CC1=C(O)C(C)(Cc2ccc(C(C)(C)C)cc2)SC1=O` (stereo not given), the MIC was > 1000 µM.
On the same count and under the same terms, the result for `CC1=C(O)C(C)(Cc2ccc([N+](=O)[O-])cc2)SC1=O` (stereo not given) reads > 1000 µM; that for `COc1ccccc1CC1(C)SC(O)=C(C)C1=O` (stereo not given), > 1000 µM.
Turning to `CC1=C(O)C(C)(Cc2c(C)cc(C)cc2C)SC1=O` (stereo not given), the minimal inhibitory concentration (MIC) is > 1000 µM.
Same read-out and setting: to `CC1=C(O)C(C)(Cc2cccc(Cl)c2)SC1=O` (stereo not given) belongs > 1000 µM; to `COc1cccc(CC2(C)SC(O)=C(C)C2=O)c1` (stereo not given), > 1000 µM; to `CCCCCC(C)C1(C)SC(O)=C(C)C1=O` (stereo not given), 160 µM (≈ 38.8 µg/mL).
For the molecule `CC1=C(O)C(C)(Cc2ccc(Cl)cc2)SC1=O` (stereo not given), the minimal inhibitory concentration (MIC) was > 1000 µM.
As for `CC1=C(O)C(C)(Cc2ccccc2C)SC1=O` (stereo not given), the minimal inhibitory concentration (MIC) was > 1000 µM.
On the same count and under the same terms, the result for `CC1=C(O)C(C)(Cc2ccc(C)cc2)SC1=O` (stereo not given) reads > 1000 µM.

In a further experiment the target is T3, 3-oxoacyl-[acyl-carrier-protein] synthase 3 (Escherichia coli, UniProt C3TDZ2).
T3 sequence (C3TDZ2 whole entry): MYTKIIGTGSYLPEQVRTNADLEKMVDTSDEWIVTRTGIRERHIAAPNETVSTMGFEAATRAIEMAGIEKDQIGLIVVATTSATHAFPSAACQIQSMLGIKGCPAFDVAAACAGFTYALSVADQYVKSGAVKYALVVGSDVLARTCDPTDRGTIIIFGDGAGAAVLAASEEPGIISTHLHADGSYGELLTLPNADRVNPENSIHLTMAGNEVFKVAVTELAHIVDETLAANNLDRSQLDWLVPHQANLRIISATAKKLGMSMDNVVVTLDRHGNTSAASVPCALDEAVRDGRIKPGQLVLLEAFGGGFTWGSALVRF
Description: Inhibitory activity against FabH from Escherichia coli ANSI.
As for `CC1=C(O)C(C)(Cc2ccc(C(C)(C)C)cc2)SC1=O` (stereo not given), the IC50 was > 1000 µM.
In the case of `CC1=C(O)C(C)(Cc2ccc([N+](=O)[O-])cc2)SC1=O` (stereo not given), the 50% inhibitory concentration (IC50) is > 1000 µM.
As to `COc1ccccc1CC1(C)SC(O)=C(C)C1=O` (stereo not given), the half-maximal inhibitory concentration (IC50) is > 1000 µM.
As to `CC1=C(O)C(C)(Cc2c(C)cc(C)cc2C)SC1=O` (stereo not given), the 50% inhibitory concentration (IC50) is > 1000 µM.
Take `CC1=C(O)C(C)(Cc2cccc(Cl)c2)SC1=O` (stereo not given): the IC50 was > 1000 µM.
On to `COc1cccc(CC2(C)SC(O)=C(C)C2=O)c1` (stereo not given), for which the 50% inhibitory concentration (IC50) was > 1000 µM.
Still for that read-out and setting: to `CCCCCC(C)C1(C)SC(O)=C(C)C1=O` (stereo not given) belongs > 1000 µM; to `CC1=C(O)C(C)(Cc2ccc(Cl)cc2)SC1=O` (stereo not given), > 1000 µM.
Still for that read-out and setting: to `CC1=C(O)C(C)(Cc2ccccc2C)SC1=O` (stereo not given) belongs > 1000 µM; to `CC1=C(O)C(C)(Cc2ccc(C)cc2)SC1=O` (stereo not given), > 1000 µM.

The target in another experiment is wild-type apo-KasA (Mycobacterium tuberculosis, UniProt P9WQD9). Briefly: Inhibitory activity against KasA from Mycobacterium tuberculosis H37Rv.
wild-type apo-KasA, sequence (P9WQD9 whole entry, looked up): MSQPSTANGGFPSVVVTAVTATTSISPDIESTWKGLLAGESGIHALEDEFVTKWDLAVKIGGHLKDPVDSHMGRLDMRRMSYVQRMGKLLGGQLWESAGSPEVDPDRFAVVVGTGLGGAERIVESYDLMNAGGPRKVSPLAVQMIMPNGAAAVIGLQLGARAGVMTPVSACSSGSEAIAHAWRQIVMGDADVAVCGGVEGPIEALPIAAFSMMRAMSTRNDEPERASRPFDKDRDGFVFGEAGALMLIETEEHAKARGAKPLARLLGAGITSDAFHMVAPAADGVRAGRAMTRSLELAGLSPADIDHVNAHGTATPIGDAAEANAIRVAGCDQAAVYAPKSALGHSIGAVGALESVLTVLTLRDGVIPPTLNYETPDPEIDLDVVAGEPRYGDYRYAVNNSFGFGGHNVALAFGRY
`CC1=C(O)C(C)(Cc2ccc(C(C)(C)C)cc2)SC1=O` (stereo not given): the half-inhibitory concentration (IC50) was > 1000 µM.
`CC1=C(O)C(C)(Cc2ccc([N+](=O)[O-])cc2)SC1=O` (stereo not given): the half-maximal inhibitory concentration (IC50) is > 1000 µM.
Take `COc1ccccc1CC1(C)SC(O)=C(C)C1=O` (stereo not given): the IC50 was > 1000 µM.
In the case of `CC1=C(O)C(C)(Cc2c(C)cc(C)cc2C)SC1=O` (stereo not given), the IC50 was > 1000 µM.
As for `CC1=C(O)C(C)(Cc2cccc(Cl)c2)SC1=O` (stereo not given), the IC50 was > 100 µM.
Regarding `COc1cccc(CC2(C)SC(O)=C(C)C2=O)c1` (stereo not given), the 50% inhibitory concentration (IC50) is > 1000 µM.
Still for that read-out and setting: the result for `CCCCCC(C)C1(C)SC(O)=C(C)C1=O` (stereo not given) reads > 1000 µM; that for `CC1=C(O)C(C)(Cc2ccc(Cl)cc2)SC1=O` (stereo not given), > 1000 µM; that for `CC1=C(O)C(C)(Cc2ccccc2C)SC1=O` (stereo not given), > 1000 µM.
Still for that read-out and setting: the result for `CC1=C(O)C(C)(Cc2ccc(C)cc2)SC1=O` (stereo not given) reads > 1000 µM.

A further experiment has as its target T4, Mycobacterial beta-ketoacyl-[acyl-carrier-protein] synthase III (Mycobacterium tuberculosis, UniProt P9WNG3).
T4 sequence (P9WNG3 whole entry): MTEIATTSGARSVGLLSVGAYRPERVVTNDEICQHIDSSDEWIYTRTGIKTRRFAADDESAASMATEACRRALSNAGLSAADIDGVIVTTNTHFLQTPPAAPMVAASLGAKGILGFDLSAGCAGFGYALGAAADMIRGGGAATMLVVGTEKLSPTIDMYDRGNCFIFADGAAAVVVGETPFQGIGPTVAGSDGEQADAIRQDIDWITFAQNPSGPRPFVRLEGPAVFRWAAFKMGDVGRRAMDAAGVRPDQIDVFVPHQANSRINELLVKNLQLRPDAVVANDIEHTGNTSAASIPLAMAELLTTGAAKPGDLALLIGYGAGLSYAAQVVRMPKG
Description: Inhibitory activity against FabH from Mycobacterium tuberculosis H37Rv.
Consider `CC1=C(O)C(C)(Cc2ccc(C(C)(C)C)cc2)SC1=O` (stereo not given), for which the IC50 is > 100 µM.
On the same count and under the same terms, the result for `CC1=C(O)C(C)(Cc2ccc([N+](=O)[O-])cc2)SC1=O` (stereo not given) reads > 1000 µM; that for `COc1ccccc1CC1(C)SC(O)=C(C)C1=O` (stereo not given), > 100 µM; that for `CC1=C(O)C(C)(Cc2c(C)cc(C)cc2C)SC1=O` (stereo not given), > 1000 µM.
On the same count and under the same terms, the result for `CC1=C(O)C(C)(Cc2cccc(Cl)c2)SC1=O` (stereo not given) reads > 1000 µM.
Take `COc1cccc(CC2(C)SC(O)=C(C)C2=O)c1` (stereo not given): the IC50 is > 1000 µM.
As for `CCCCCC(C)C1(C)SC(O)=C(C)C1=O` (stereo not given), the IC50 was > 1000 µM.
As for `CC1=C(O)C(C)(Cc2ccc(Cl)cc2)SC1=O` (stereo not given), the concentration for half-maximal inhibition (IC50) was > 100 µM.
Still for that read-out and setting: the result for `CC1=C(O)C(C)(Cc2ccccc2C)SC1=O` (stereo not given) reads > 1000 µM.
For the molecule `CC1=C(O)C(C)(Cc2ccc(C)cc2)SC1=O` (stereo not given), the IC50 is > 1000 µM.

For the origin of these results see ChEMBL document CHEMBL1148604 (J Med Chem, 2006).
